Assays:
[1] = Cytotoxicity against Homo sapiens (human) PN-5C-12 at 100 ug after 72 hr by MTT assay; settings: in vitro
[2] = Cytotoxicity against Homo sapiens (human) HL60-P58 at 100 ug after 72 hr by MTT assay; type: functional
[3] = Cytotoxicity against Homo sapiens (human) HeLa-B75 at 100 ug after 72 hr by MTT assay; type: functional
[4] = Cytotoxicity against Homo sapiens (human) Hep-3BPN7 at 100 ug after 72 hr by MTT assay; type: functional
Candida albicans = assay: Antimicrobial activity against Candida albicans MTCC 3017 at 100 ug after 48 hr by agar disk diffusion method; type: functional; settings: MTCC 3017, 48 h, read-out: DIZ
Proteus vulgaris = assay: Antimicrobial activity against Proteus vulgaris MTCC 1751 at 100 ug after 24 hr by agar disk diffusion method; type: functional; settings: MTCC 1751, 24 h, read-out: DIZ
[5] = Antioxidant activity assessed as hydroxyl radical scavenging activity at 100 ug after 5 min by UV-Visible spectrophotometry; type: functional
[6] = test system: Radical scavenging activity; assay: Antioxidant activity assessed as DPPH radical scavenging activity at 100 ug after 20 min by UV-Visible spectrophotometry; type: functional
Escherichia coli = assay: Antimicrobial activity against Escherichia coli DH5[alpha] at 100 ug after 24 hr by agar disk diffusion method; type: functional; settings: read-out: DIZ
[7] = Antioxidant activity assessed as ferric reducing activity at 100 ug after 20 min by UV-Visible spectrophotometry; parameters: scale not given: the % may be the effect or the level left
Staphylococcus aureus = assay: Antimicrobial activity against Staphylococcus aureus MTCC 96 at 100 ug after 24 hr by agar disk diffusion method; type: functional; settings: MTCC 96, 24 h, read-out: DIZ

SMILES	Activity [1] [%]	Activity [2] [%]	Activity [3] [%]	Activity [4] [%]	zone of inhibition at 100 µg/disc (Candida albicans) [mm]	zone of inhibition at 100 µg/disc (Proteus vulgaris) [mm]	Activity [5] [%]	Activity [6] [%]	zone of inhibition at 100 µg/disc (Escherichia coli) [mm]	Activity [7] [%]	zone of inhibition at 100 µg/disc (Staphylococcus aureus) [mm]
CN(Cc1cnc2nc(N)nc(N)c2n1)c1ccc(C(=O)N[C@@H](CCC(=O)O)C(=O)O)cc1 [METHOTREXATE]	53.85	54.08	78.66	64.6							
COc1cc(OC)c(C2=CCN(C)CC2)c(OC)c1/C=C/C(=O)c1ccc[nH]1	57.57	66.55	77.77	80.13	1.5	3	63.1	68.7	6.25	61.2	1.1
COc1cc(OC)c(C2=CCN(C)CC2)c(OC)c1/C=C/C(=O)c1cccc(N)c1	44.53	66.72	82.64	76.33	6.3	7	55.6	94.5	3.5	64.8	3.5
COc1ccc(C(=O)/C=C/c2c(OC)cc(OC)c(C3=CCN(C)CC3)c2OC)cc1OC	65.21	62.77	84.84	79.46	1.5	5.5	35	22.3	2	50.7	0.5
COc1cc(OC)c(C(=O)/C=C/c2c(OC)cc(OC)c(C3=CCN(C)CC3)c2OC)c(OC)c1	59.81	65.04	78.73	70.53		3.5	46.6	56.1	3.5	58.8	3.5
COc1cc(OC)c(C2=CCN(C)CC2)c(OC)c1/C=C/C(=O)c1ccc(Cl)c(Cl)c1	67.19	65.04	85.93	79.8	5.5	9.1	59.8	56.9	1.5	46.7	5
COc1cc(OC)c(C2=CCN(C)CC2)c(OC)c1/C=C/C(=O)c1ccc(Cl)cc1	67.98	65.04	83.74	77.4		3	16.9	20.4	3	41.9	2.5
COc1cc(OC)c(C2=CCN(C)CC2)c(OC)c1/C=C/C(=O)c1ccc(C)cc1	44.26	69.49	82.23	72.53	0.1	10.2	59.8	58.5	2.5	68.1	5
COc1cc(OC)c(C2=CCN(C)CC2)c(OC)c1/C=C/C(=O)c1ccc(Br)cc1	66.4	62.68	84.84	78.93	0.5		44.4	23.3	2	50.3	0.5
COc1ccc(C(=O)/C=C/c2c(OC)cc(OC)c(C3=CCN(C)CC3)c2OC)c(OC)c1	47.82	78.48	83.4	77		3.5	59	60.6	3.15	53.1	2.5
COc1ccccc1C(=O)/C=C/c1c(OC)cc(OC)c(C2=CCN(C)CC2)c1OC	46.77	68.4	81.13	71.33		3	59.8	60	3.5	60.8	2.5
COc1cc(OC)c(C2=CCN(C)CC2)c(OC)c1/C=C/C(=O)c1cc(Cl)ccc1Cl	60.47	65.63	79.97	70.8	1.5	6.5	48.5	55.4	1.5	62.4	1.5
COc1cc(OC)c(C2=CCN(C)CC2)c(OC)c1/C=C/C(=O)c1ccc([N+](=O)[O-])cc1	70.09	65.88	83.67	80.13	2	4	51.5	25	2	46.3	5
COc1cc(OC)c(C2=CCN(C)CC2)c(OC)c1/C=C/C(=O)c1ccc(F)cc1	69.43	62.18	85.04	79.86	3.5	7.5	38.7	22.9	4.5	48.3	2
COc1cc(OC)c(C2=CCN(C)CC2)c(OC)c1/C=C/C(=O)c1cccs1	67.19	54.28	84.91	79.8	1.5	6.5	36.5	22.7	1.1	59.6	2.5
COc1ccc(OC)c(C(=O)/C=C/c2c(OC)cc(OC)c(C3=CCN(C)CC3)c2OC)c1	41.1	66.3	82.09	73.4		5	54.9	57.7	2.5	66.5	5
COc1cc(O)c(C(=O)/C=C/c2c(OC)cc(OC)c(C3=CCN(C)CC3)c2OC)c(OC)c1	44.13	64.2	79.69	71.4		9.5	51.1	57.3	2	69.3	1.5
COc1cc(OC)c(C2=CCN(C)CC2)c(OC)c1/C=C/C(=O)c1ccc(Cl)cc1Cl	50.98	58.99	79.42	71.26	1.1	5.5	48.1	56.7	2.5	63.6	1.1
COc1cc(OC)c(C2=CCN(C)CC2)c(OC)c1/C=C/C(=O)c1ccc(F)c(F)c1	65.48	70.5	82.85	76.93	1.1	4	52.2	58.8	2	43.9	2.5
COc1cc(OC)c(C2=CCN(C)CC2)c(OC)c1/C=C/C(=O)c1ccccc1	61.79	63.52	84.15	78.06	3.5	2.5	41.4	27.9	5.5	58.4	5
COc1ccc(C(=O)/C=C/c2c(OC)cc(OC)c(C3=CCN(C)CC3)c2OC)cc1	46.11	56.97	80.86	72.33		7	57.9	55.6	3.5	67.7	2.5
COc1cc(OC)c(C2=CCN(C)CC2)c(OC)c1/C=C/C(=O)c1ccc(N)cc1	49.67	61.17	79.28	75.06	2.9	5	54.1	89.6	6.5	48.3	1.5
